From patent publication US6858638B2, “Substituted indazoles, compositions containing them, method of production and use” (Aventis Pharma S.A., priority 2002, dated 2005) come the findings set out here.

Common to all, as to format: biochemical
One test has as its target T1, human KDR enzyme (Homo sapiens, UniProt P35968).
T1 construct: The cytoplasmic domain of the human KDR enzyme; GST; made in house; host or cells: SF21 insect cells (baculovirus)
Briefly: KDR substrate (PLCγ) phosphorylation, scintillation assay. As to conditions: 10 μM; read-out: KDR % inhib at 10 μM. On the procedure:
The inhibitory effect of the compounds is determined in an assay of substrate phosphorylation by the KDR enzyme in vitro using a scintillation technique (96-well plate, NEN).
The cytoplasmic domain of the human KDR enzyme was cloned in the form of a GST fusion into the baculovirus expression vector pFastBac. The protein was expressed in SF21 cells and purified to approximately 60% homogeneity.
The KDR kinase activity is measured in 20 mM MOPS, 10 mM MgCl2, 10 mM MnCl2, 1 mM DTT, 2.5 mM EGTA, 10 mM β-glycerophosphate, pH=7.2, in the presence of 10 mM MgCl2, 100 μM Na3VO4, 1 mM NaF. 10 μl of the compound are added to 70 μl of kinase buffer containing 100 ng of KDR enzyme at 4° C. The reaction is triggered by adding 20 μl of solution containing 2 μg of substrate (SH2-SH3 fragment of PLCγ expressed in the form of a GST fusion protein), 2 μCi γ^33P[ATP] and 2 μM cold ATP. After incubation for 1 hour at 37° C., the reaction is stopped by adding 1 volume (100 μl) of 200 mM EDTA. The incubation buffer is removed and the wells are washed three times with 300 μl of PBS. The radioactivity is measured in each well using Top Count NXT radioactivity counter (Packard).
The background noise is determined by measuring the radioactivity in four different wells containing the radioactive ATP and the substrate alone.
A control for total activity is measured in four different wells containing all the reagents (γ^33P-[ATP], KDR and PLCγ substrate) but in the absence of compound.
The inhibition of the KDR activity with the compound of the invention is expressed as percentage inhibition of the control activity determined in the absence of compound.
The compound SU5614 (Calbiochem) (1 μM) is included in each plate as an inhibition control.

Another test concerns the target T2, human FAK (Homo sapiens, UniProt Q05397).
T2 construct: The complete cDNA of human FAK; made in house; host or cells: baculovirus expression system (vector pFastBac HTc)
Briefly: FAK autophosphorylation inhibition, time resolved fluorescence (HTRF) assay. As to conditions: for inhibition at 10 µM: 10 μM (values without asterisk), read-out: FAK % inhib at 10 μM; for inhibition at 30 µM: 30 μM (values marked *), read-out: FAK % inhib at 30* μM. The procedure: The inhibitory activity of the compounds on FAK is determined by measuring the inhibition of the autophosphorylation of the enzyme using a time resolved fluorescence (HTRF) assay.
The complete cDNA of human FAK, the N-terminal end of which was labeled with histidine, was cloned into a baculovirus expression vector pFastBac HTc. The protein was expressed and purified to approximately 70% homogeneity.
The kinase activity is determined by incubating the enzyme (6.6 μg/ml) with various concentrations of test compound in a 50 mM Hepes buffer, pH=7.2, containing 10 mM MgCl2, 100 μM Na3VO4 and 15 μM d'ATP for 1 hour at 37° C. The enzyme reaction is stopped by adding Hepes buffer, pH=7.0, containing […], 133 mM EDTA and 0.1% BSA, and the labeling is carried out, over 1 to 2 hours at ambient temperature, by adding to this buffer an anti-Histidine antibody labeled with XL665 and a monoclonal antibody phosphospecific for tyrosine, conjugated to europium cryptate (Eu-K). The characteristics of the two fluorophores are available in G. Mathis et al., Anticancer Research, 1997, 17, pages 3011-3014. The transfer of energy from the excited europium cryptate to the XL665 acceptor is proportional to the degree of autophosphorylation of FAK. The long-lived signal specific for XL-665 is measured in a Packard Discovery plate counter. All the assays are carried out in duplicate and the mean of the two assays is calculated. The inhibition of the FAK autophosphorylation activity with compounds of the invention is expressed as percentage inhibition compared to a control whose activity is measured in the absence of test compound. The [signal at 665 nm/signal at 620 nm] ratio is used for the calculation of the % inhibition.
Background: TR-FRET usually uses a lanthanide donor and a delayed reading to cut background.

The next test addresses T3, Aurora2 kinase (Homo sapiens, UniProt O14965).
T3 construct: A complete recombinant Aurora2 enzyme; His tag (N); made in house; host or cells: E. coli
T3 sequence (O14965 1-403): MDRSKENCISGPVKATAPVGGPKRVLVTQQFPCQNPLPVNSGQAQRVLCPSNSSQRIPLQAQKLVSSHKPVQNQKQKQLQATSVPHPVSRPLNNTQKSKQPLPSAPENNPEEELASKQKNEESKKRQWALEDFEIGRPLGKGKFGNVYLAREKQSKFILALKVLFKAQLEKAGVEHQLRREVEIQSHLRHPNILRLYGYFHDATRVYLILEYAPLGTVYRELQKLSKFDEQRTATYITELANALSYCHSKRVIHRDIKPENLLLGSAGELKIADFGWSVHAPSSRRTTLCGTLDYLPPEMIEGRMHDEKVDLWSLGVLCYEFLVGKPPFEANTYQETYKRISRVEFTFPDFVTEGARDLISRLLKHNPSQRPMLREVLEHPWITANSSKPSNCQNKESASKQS
In words: Aurora2 kinase radioactivity scintillation assay using nickel chelate (NuMA substrate). As to conditions: 10 μM; read-out: Aurora2 % inhib at 10 μM. The procedure: The inhibitory effect of compounds with respect to the Aurora2 kinase is determined with a radioactivity scintillation assay using nickel chelate.
A complete recombinant Aurora2 enzyme, the N-terminal end of which was labeled with histidine, was expressed in E. coli and purified to a quality close to homogeneity.
The C-terminal fragment (Q1687-H2101) of a NuMA (Nuclear protein that associates with the Mitotic Apparatus) expressed in E. coli, and the N-terminal end of which was labeled with histidine, was purified by nickel chelate chromatography and used as substrate in the Aurora2 kinase assay. In order to determine the kinase activity, the NuMA substrate is equilibrated by chromatography on a Pharmacia PD10 column, in a buffer (50 mM Tris HCl, pH7.5, 50 mM NaCl, 10 mM MgCl2) to which 10% (v/v) of glycerol and 0.05% (w/v) of NP40 have been added.
The kinase acivitity of Aurora2 is measured by scintillation with nickel chelate (New England Nuclear, model SMP107). Each well contains 100 μl of the following solution: 0.02 μM of Aurora2; 0.5 μM of NuMA substrate; 1 μM of ATP to which 0.5 μCi of ATP-[^33P] has been added. The solutions are incubated for 30 minutes at 37° C. The assay buffer is then removed and the wells are rinsed twice with 300 μl of kinase buffer. The radioactivity is measured in each well using a Packard Model Top Count NXT device.
The background noise is deduced from the measurement of radioactivity by measuring, in duplicate, in wells containing the radioactive ATP alone containing buffered kinase treated in the same way as the other samples.
The activity of the control is determined by measuring, in duplicate, the radioactivity in the complete assay mixture (ATP, Aurora2 and the NuMA substrate) in the absence of test compound.
The inhibition of the Aurora2 with a compound of the invention is expressed as percentage inhibition of the control activity in the absence of test compound. Staurosporine is added to each plate as an inhibition control.

T2 sequence (Q05397 whole entry): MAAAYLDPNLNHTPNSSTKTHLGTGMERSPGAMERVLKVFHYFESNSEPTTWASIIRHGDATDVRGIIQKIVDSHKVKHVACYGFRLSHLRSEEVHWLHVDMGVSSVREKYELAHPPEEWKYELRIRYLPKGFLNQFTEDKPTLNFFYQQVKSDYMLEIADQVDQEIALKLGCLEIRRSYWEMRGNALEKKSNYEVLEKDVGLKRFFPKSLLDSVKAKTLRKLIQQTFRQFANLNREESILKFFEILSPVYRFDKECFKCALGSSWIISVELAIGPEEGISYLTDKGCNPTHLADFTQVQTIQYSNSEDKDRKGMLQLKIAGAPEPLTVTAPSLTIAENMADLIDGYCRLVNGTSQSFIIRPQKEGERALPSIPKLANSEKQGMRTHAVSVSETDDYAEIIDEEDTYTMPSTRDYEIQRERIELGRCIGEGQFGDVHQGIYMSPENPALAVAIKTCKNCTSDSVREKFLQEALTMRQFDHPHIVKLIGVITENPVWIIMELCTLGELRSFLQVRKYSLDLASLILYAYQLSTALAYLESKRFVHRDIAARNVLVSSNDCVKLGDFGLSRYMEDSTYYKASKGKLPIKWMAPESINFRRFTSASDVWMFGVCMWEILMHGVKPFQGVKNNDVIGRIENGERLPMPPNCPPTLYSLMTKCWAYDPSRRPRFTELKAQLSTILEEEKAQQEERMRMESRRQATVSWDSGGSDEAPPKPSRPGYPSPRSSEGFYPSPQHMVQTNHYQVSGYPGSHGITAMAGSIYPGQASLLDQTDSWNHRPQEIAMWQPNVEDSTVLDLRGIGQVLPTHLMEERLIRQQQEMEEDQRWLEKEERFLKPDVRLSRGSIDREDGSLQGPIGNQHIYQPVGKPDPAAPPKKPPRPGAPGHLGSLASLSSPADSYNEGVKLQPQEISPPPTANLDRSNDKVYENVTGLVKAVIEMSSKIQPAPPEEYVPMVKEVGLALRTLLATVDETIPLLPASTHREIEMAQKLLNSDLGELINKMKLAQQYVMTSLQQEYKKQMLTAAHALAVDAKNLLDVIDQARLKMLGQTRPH
T1 sequence (P35968 786-1356 limits assumed): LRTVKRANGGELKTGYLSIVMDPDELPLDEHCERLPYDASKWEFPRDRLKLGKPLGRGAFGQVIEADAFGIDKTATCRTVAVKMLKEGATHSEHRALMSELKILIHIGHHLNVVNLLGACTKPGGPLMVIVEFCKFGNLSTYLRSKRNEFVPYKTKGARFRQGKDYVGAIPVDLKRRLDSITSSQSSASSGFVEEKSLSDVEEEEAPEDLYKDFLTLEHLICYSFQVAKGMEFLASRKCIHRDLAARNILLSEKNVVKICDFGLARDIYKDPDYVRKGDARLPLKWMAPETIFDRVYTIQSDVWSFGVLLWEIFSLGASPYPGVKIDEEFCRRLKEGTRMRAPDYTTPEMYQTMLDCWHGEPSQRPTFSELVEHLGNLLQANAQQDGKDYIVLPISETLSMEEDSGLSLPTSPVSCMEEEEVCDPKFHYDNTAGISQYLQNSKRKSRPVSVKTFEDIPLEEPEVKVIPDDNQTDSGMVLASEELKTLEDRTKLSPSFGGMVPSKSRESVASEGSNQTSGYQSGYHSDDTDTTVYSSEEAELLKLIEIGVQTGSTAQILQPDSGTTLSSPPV

On to `CC(=O)Nc1ccccc1-c1n[nH]c2ccc(NS(=O)(=O)c3cccc(F)c3)cc12` [Example 47, N-{2-[5-(3-Fluorobenzenesulfonylamino)-1H-indazol-3-yl]phenyl}acetamide], for which the inhibition at 10 µM at human KDR enzyme was found to be 25%; at human FAK, 32%; on Aurora2 kinase it was 65%.

Turning to `CCS(=O)(=O)Nc1ccc2[nH]nc(-c3ccccc3)c2c1` [Example 127, N-(3-Phenyl-1H-indazol-5-yl)-ethanesulfonamide], the inhibition at 10 µM at human KDR enzyme worked out at 63%; at human FAK, 32%; on Aurora2 kinase it was 78%.

As for `CC(=O)Nc1ccc(S(=O)(=O)Nc2ccc3[nH]nc(-c4ccccc4)c3c2)cc1Cl` [Example 146, N-[2-Chloro-4-(3-phenyl-1H-indazol-5-ylsulfamoyl)phenyl]-acetamide], the inhibition at 10 µM at human KDR enzyme was found to be 47%; on human FAK, 14%; on Aurora2 kinase it was 57%.

As for `CS(=O)(=O)c1ccccc1S(=O)(=O)Oc1ccc2[nH]nc(-c3nc4ccccc4[nH]3)c2c1` [Example 226, 3-(1H-Benzimidazol-2-yl)-1H-indazol-5-yl-2-methanesulfonylbenzenesulfonate], the inhibition at 10 µM at Aurora2 kinase is 100%.

Take `O=S(=O)(Nc1cccc(F)c1)c1ccc2[nH]ncc2c1` [Example 11, N-(3-Fluorophenyl)-(1H-indazol-5-yl)sulfonamide]: the inhibition at 10 µM at human KDR enzyme was 7%; on human FAK it was 59%.

As for `O=S(=O)(Nc1ccc2[nH]nc(I)c2c1)c1cccc(F)c1` [Example 12, 3-Fluoro-N-(3-iodo-1H-indazol-5-yl)benzenesulfonamide], the inhibition at 10 µM on human KDR enzyme was 39%. In addition, on human FAK, the inhibition at 30 µM stood at 92%.

For the compound `O=S(=O)(Cc1ccccc1)Nc1ccc2[nH]nc(-c3ccccc3)c2c1` [Example 125, 1-Phenyl-N-(3-phenyl-1H-indazol-5-yl)-methanesulfonamide], the results for the inhibition at 10 µM on human KDR enzyme, on human FAK and on Aurora2 kinase were 56%, 17% and 65%, respectively.

Regarding `O=C(Nc1ccccc1)c1n[nH]c2ccc(NS(=O)(=O)c3cccc(F)c3)cc12` [Example 22, N-Phenyl-5-(3-fluorobenzenesulfonylamino)-1H-indazole-3-carboxamide], the values for the inhibition at 10 µM at human KDR enzyme, on human FAK and on Aurora2 kinase were 18%, 89% and 84%, respectively.

For the compound `CNC(=O)c1n[nH]c2ccc(NS(=O)(=O)c3cccc(F)c3)cc12` [Example 19, N-Methyl-5-(3-fluorobenzenesulfonylamino)-1H-indazole-3-carboxamide], the inhibition at 10 µM on human KDR enzyme came to 73%; at human FAK, 85%.

In the case of `O=S(=O)(Oc1ccc2[nH]ncc2c1)c1cccc(F)c1` [Example 17, 1H-Indazol-5-yl 3-fluorobenzenesulfonate], the inhibition at 10 µM at human KDR enzyme was 46%; on human FAK, 59%.

As to `CC(=O)Nc1n[nH]c2ccc(NS(=O)(=O)c3cccc(F)c3)cc12` [Example 28, N-[5-(3-Fluorobenzenesulfonylamino)-1H-indazol-3-yl)acetamide], the inhibition at 10 µM stood at 24% at human KDR enzyme, 84% on human FAK and 92% at Aurora2 kinase.

For the compound `CS(=O)(=O)c1ccccc1S(=O)(=O)Nc1ccc2[nH]nc(C#N)c2c1` [Example 5, N-(3-Cyano-1H-indazol-5-yl)-2-methylsulfonylbenzenesulfonamide], on human KDR enzyme, the inhibition at 10 µM came to 26%. On human FAK, the inhibition at 30 µM is 80%.

As for `CCCCOc1ccc(S(=O)(=O)Nc2ccc3[nH]nc(-c4ccccc4)c3c2)cc1` [Example 145, 4-Butoxy-N-(3-phenyl-1H-indazol-5-yl)-benzenesulfonamide], the inhibition at 10 µM at human KDR enzyme worked out at 14%; on human FAK, 0%; on Aurora2 kinase, 26%.

On to `O=S(=O)(Nc1ccc2[nH]nc(O)c2c1)c1cccc(F)c1` [Example 16, 3-Fluoro-N-(3-hydroxy-1H-indazol-5-yl)benzenesulfonamide], for which the results for the inhibition at 10 µM on human KDR enzyme and on human FAK were 8% and 58%, respectively.

Consider `NC(=O)c1n[nH]c2ccc(NS(=O)(=O)c3cccc(F)c3)cc12` [Example 21], for which the inhibition at 10 µM on human KDR enzyme came to 80%. Also, the inhibition at 30 µM at human FAK was found to be 76%.

For `O=S(=O)(Nc1ccc2[nH]nc(Cl)c2c1)c1ccc(Cl)c(Cl)c1` [Example 2, N-(3-Chloro-1H-indazol-5-yl)-3,4-dichlorobenzenesulfonamide], the inhibition at 10 µM at human KDR enzyme came out at 43%. The inhibition at 30 µM on human FAK was 75%.

Regarding `CS(=O)(=O)c1ccccc1S(=O)(=O)Oc1ccc2[nH]nc(-c3cc4ccccc4[nH]3)c2c1` [Example 227], at Aurora2 kinase, the inhibition at 10 µM amounted to 100%.

Regarding `CS(=O)(=O)c1ccccc1S(=O)(=O)Nc1ccc2[nH]nc(C(N)=O)c2c1` [Example 20], the inhibition at 10 µM at human KDR enzyme worked out at 28%; on human FAK, 76%.

In the case of `O=S(=O)(Nc1ccc2[nH]ncc2c1)c1cccc(F)c1` [Example 15, 3-Fluoro-N-(1H-indazol-5-yl)benzenesulfonamide], the inhibition at 10 µM on human KDR enzyme is 13%. On human FAK, the inhibition at 30 µM was found to be 67%.
